Experimental data: US9403756B2, “N-phenyl anthranilic acid derivatives and uses thereof” (Ramot at Tel-Aviv University Ltd., priority 2007, dated 2016)
Several values for one entry are separate records, joined by “and”; a condition that tells them apart may be missing. Equal entries are not always repeated. Where two headings read alike, the source gives them in different places.

Tests used:
Kv7.2/3 channels = target: T1, Kv7.2/3 channels (Homo sapiens, UniProt O43525+O43526); experiment: Kv7.2/3 channels coexpressed in CHO cells, whole-cell patch-clamp; format: cell-based; settings: for Activity: M-channel modulation, Kv7.2 and Kv7.3 subunits coexpressed in CHO cells; for ΔV50 (mV): left-shift of the activation curve of Kv7.2/3 channels; for V50: control V50=−32.1±8.9 mV; for fold increase in current amplitude: stepped from −90 to −50 mV, n=10
T1 construct: expressed in transfected cells; host or cells: CHO cells
Description: Chinese hamster ovary (CHO) cells were grown in Dulbecco's modified Eagle's medium (DMEM) supplemented with 2 mM glutamine, 10% fetal calf serum and antibiotics. Briefly, 40,000 cells seeded on poly-D-lysine-coated glass coverslips (13 mm diameter) in a 24-multiwell plate were transfected with pIRES-CD8 (0.5 μg) as a marker for transfection, and with Kv7.2 (0.5 μg) and Kv7.3 (0.5 μg) or TRPV1 […] or TRPV6 […].
For electrophysiology, transfected cells were visualized approximately 40 hours following transfection, using anti-CD8 antibody-coated beads. Transfection was performed using Fugene 6 (Roche, Indianapolis Ind., USA) according to the manufacturer's protocol.
Voltage-clamp recordings in CHO cells were performed, using the whole-cell configuration of the patch-clamp technique. Signals were amplified using an Axopatch 200B patch-clamp amplifier (Molecular Devices, Sunnyvale, Calif.), sampled at 2 kHz and filtered at 800 Hz via a 4-pole Bessel low pass filter. […] The patch pipettes were pulled from borosilicate glass (Warner Instrument Corp, USA) with a resistance of 2-5 MΩ. For K^+ current recordings in CHO cells, the intracellular pipette solution contained (in mM): 130 KCl, 1 MgCl2, 5 K2ATP, 5 EGTA, 10 HEPES, adjusted with KOH to pH 7.4 (290 mOsm). The extracellular solution contained (in mM): 140 NaCl, 4 KCl, 1.8 CaCl2, 1.2 MgCl2, 11 glucose, 5.5 HEPES, adjusted with NaOH to pH 7.4 (310 mOsm).
Data analysis was performed using the Clampfit program (pClamp 9.2, Molecular Devices), Microsoft Excel (Microsoft) and Prism 4.0 (GraphPad). Chord conductance (G) was calculated by using the following equation: G=I/(V−Vrev) where I corresponds to the current amplitude measured at the end of the pulse and Vrev, the calculated reversal potential. G was estimated at various test voltages V and then, normalized to a maximal conductance value, Gmax. Activation curves were fitted by one Boltzmann distribution: G/Gmax=1/{1+exp[(V50−V)/s]} where V50 is the voltage at which the current is half-activated and s is the slope factor. All data were expressed as mean±SEM. Statistically significant differences were assessed by Student's t-test. Analysis of sEPSCs and sIPSCs was done using the Clampfit program (pClamp 9.2, Molecular Devices) and included evaluation of the individual events as well as the average event amplitude and the integral of the event (total charge transfer).
In these studies, the impact of the compounds on M-channel activity was measured by the heterologous coexpression of Kv7.2 and Kv7.3 subunits in CHO cells.

DRG neurons = experiment: Current-clamp recordings in cultured DRG neurons; format: cell-based, rat; settings: for rheobase current to generate a single spike: 2 ms injection
Description: For dorsal root ganglion (DRG) neuronal cultures, ganglia were dissected from 2-5 day-old Sprague-Dawley rats killed by decapitation. DRGs were placed in Hank's balanced saline solution (HBSS) and prepared by enzymatic dissociation. Briefly, after 30 minutes incubation in 5 mg/ml dispase, 2 mg/ml collagenase type 1A and 0.1 mg/ml DNase (Invitrogen/Gibco, Carlsbad, Calif.) in Ca^2+ and Mg^2+-free HBSS, the ganglia were mechanically triturated with a fire-polished glass Pasteur pipette. The ganglia were then centrifuged for 5 minutes at 80×g and resuspended in DMEM supplemented with 2 mM L-glutamine, 16.5 mM NaHCO3, 6 g/l glucose, 5 ml penicillin/streptomycin and 10% fetal calf serum.
For electrophysiological recording, dissociated neurons were plated on 13 mm glass coverslips, previously coated with poly-D-lysine (1 mg/ml) and laminin (10 μg/ml) and used at 1-2 days in culture.
For current-clamp recordings in primary cultured neurons, the patch pipettes were filled with (in mM): 135 KCl, 1 K2ATP, 1 MgATP, 2 EGTA, 1.1 CaCl2, 5 glucose, 10 HEPES, adjusted with KOH at pH 7.4 (315 mOsm). The external solution contained (in mM): 150 NaCl, 2.5 KCl, 2 CaCl2, 2 MgCl2, 15 glucose, 10 HEPES, adjusted with NaOH at pH 7.4 (325 mOsm). Recordings were sampled at 5 kHz and filtered at 2 KHz via a 4-pole Bessel low pass filter. A liquid junction potential of about −15.6 mV was measured between the intracellular and saline solutions and corrected on-line.
For evoking spike discharges, 75-200 pA square depolarizing current pulses were injected into neurons for 400 ms. For rheobase current measurements, 100-1100 pA square depolarizing current pulses were injected into neurons for 2 ms.

`O=C(Cc1cc([N+](=O)[O-])cc([N+](=O)[O-])c1Nc1c(Cl)cc([N+](=O)[O-])cc1Cl)NCCO` [NH29] was tested, and the EC50 (Kv7.2/3 channels) was 14 ± 2 µM, the “left-shift of Kv7.2/3 activation curve compared to control” value (shortened to “left-shift of Kv7.2/3 activation curve”) (Kv7.2/3 channels; 10 μM) was −13 mV and the “fold increase of Kv7.2/3 current amplitude” value (Kv7.2/3 channels; 25 μM, at −50 mV, n=5) was 9.4±1.2 fold. For the same compound, the “left-shift of Kv7.2/3 activation curve” value (Kv7.2/3 channels; 100 μM) was −31 mV, the Activity (Kv7.2/3 channels) was “Opener” and the “ΔV50 (mV)” value (Kv7.2/3 channels) was −31.3 mV. For the same compound, the EC50 (Kv7.2/3 channels; opener potency, concentration-dependent left-shift in half-activation potential ΔV50, sigmoidal fit) was 14 µM, the “rheobase current to generate a single spike” value (DRG neurons; 25 μM NH29, control 178±36 pA, n=8) was 300±55 pA and the resting membrane potential (DRG neurons; 25 μM NH29, control −56.0±2.2 mV, n=7) was −65.0±3.4 mV. The “hyperpolarization of resting membrane potential” value (DRG neurons; 25 μM NH29, n=7) was −9.0±1.9 mV.
In the case of `O=C(Cc1cc([N+](=O)[O-])ccc1Nc1c(Cl)cccc1Cl)OCCO` [NH25], the “left-shift of Kv7.2/3 activation curve” value (Kv7.2/3 channels; 10 μM) is reported as −11 mV, the V50 (Kv7.2/3 channels; 10 μM NH25, n=5) is reported as −43.6±9.0 mV and the “fold increase in current amplitude” value (Kv7.2/3 channels; 10 μM) is reported as 3.2 fold. For the same compound, the “left-shift of Kv7.2/3 activation curve” value (Kv7.2/3 channels; 50 μM) was −21 mV, the V50 (Kv7.2/3 channels; 50 μM NH25, n=5) was −53.5±9.3 mV and the “fold increase in current amplitude” value (Kv7.2/3 channels; 50 μM) was 9.1 fold. The “left-shift of Kv7.2/3 activation curve” value (Kv7.2/3 channels; 200 μM) was −31 mV, the V50 (Kv7.2/3 channels; 200 μM NH25, n=5) was −63.1±2.0 mV and the Activity (Kv7.2/3 channels) was “Opener”. For the same compound, the “deactivation kinetics τdeact” value (Kv7.2/3 channels; NH25, tail currents at −60 mV, control 129±22 ms, n=5) was 284 ± 43 ms, the “ΔV50 (mV)” value (Kv7.2/3 channels) was −31.0 mV and −31 mV and the EC50 (Kv7.2/3 channels; opener potency, concentration-dependent left-shift in half-activation potential ΔV50, sigmoidal fit, read-out: EC50) was 22 µM. The “rheobase current to generate a single spike” value (DRG neurons; 25 μM NH25, control 400±41 pA, n=12) was 577±38 pA, the “number of evoked action potentials” value (DRG neurons; 25 μM NH25, 75-200 pA for 400 ms, control 10.4±0.8, n=8) was 0.8±0.3 and the resting membrane potential (DRG neurons; 25 μM NH25, control −60.6±0.3 mV, n=13) was −69.0±0.3 mV. For the same compound, the “hyperpolarization of resting membrane potential” value (DRG neurons; 25 μM NH25, n=13) was −8.3±0.2 mV.
